Data taken from patent US5681695A, “Method for increasing specificity in competitive immunoassays” (priority 1994, dated 1997).

Legend:
anti-HBc [1] = assay: CORAB radioimmunoassay for anti-HBc (competitive), with reducing agent added to the sample; assay type: binding, human; conditions: for inhibition in the Corab assay: presence of metabisulfite
Experimental: 0.1 ml samples in groups I and II were placed in duplicate reaction wells, along with negative and positive controls, and 10 ul of 0.3% 2-mercaptoethanol (2-ME) in H2 O was added to one each of the duplicates, while 10 ul H2 O was added to the other. 0.1 ml of ^125 I-labeled anti-HBc was added to all wells, followed by an HBcAg-coated 1/4 inch polystyrene bead to all wells. Trays were gently shaken and allowed to incubate overnight at room temperature. All beads were washed 3 times with distilled water and transferred to test tubes for counting for 1 minute in a gamma scintillation counter. The positivity or negativity of each was calculated, as was the degree (%) inhibition from negative control for each specimen both with and without reducing reagent according to the formula: [formula] By this calculation, a sample giving a value equal to or greater than 50% is judged as positive in the test. The effect of the addition of the reducing reagents to the specimens was evaluated by several criteria:
Plasma samples designated 25, 31, 76, 91, 177 and 189 were tested with a commercially available anti-HBc kit (Corab®, Abbott Laboratories, North Chicago, Ill.) with and without addition of 10 ul of a reducing agent, 0.5M sodium metabisulfite. Also, as in Example 4, samples were tested with and without addition of 26.3 ul of a positive anti-HBc sample (Panel 5). […] Samples 31 and 91 are discrepant samples which are confirmed as negative upon addition of the reducing agent.

anti-HBc [2] = assay: Microparticle chemiluminescence immunoassay for anti-HBc, with cysteine; assay type: binding, human
Experimental: Recombinant DNA hepatitis B core antigen (rHBcAg) was coupled to carboxylated polystyrene latex microparticles (Seragen Diagnostics, Indianapolis, Ind., 0.188 um) using a two-step procedure. First, purified polyclonal human anti-HBc at 2.7 ug/mg latex particles in the presence of normal human serum (1.0 ul/mg) was coupled using 1-ethyl-3-(3-dimethylaminopropyl) carbodiimide (EDAC, 43 ug/mg) in 0.015M MES buffer (2-[N-morpholino] ethanesulfonic acid), pH 4.8, for 2 hours at room temperature. Bangs, "Uniform Latex Particles", Seragen Diagnostics, 1984. The antibody undercoated particles were then washed three times in 0.1M Tris buffer, pH 7.2, containing 0.9% NaCl, 0.03% EDTA and 0.05% Tween-20 by centrifugation (40,000×g for 20 minutes) and resuspended in 0.1M Tris buffer, pH 7.2, containing 0.9% NaCl, 0.03% EDTA and 0.03% bovine serum albumin. rHBcAg (0.2 ug/mg) was then immunologically adsorbed on the undercoated particles by slow rotation overnight at room temperature. Particles were washed three times as before and dispersed through a 25 gauge needle and stored in 0.01M sodium phosphate, pH 7.2, containing 0.15M NaCl, 0.1% bovine serum albumin, 0.01% Tween-20 and 0.1% sodium azide (Microparticle Diluent). Percent solids was determined by light scattering at 500 nanometers. Coated particles were stored concentrated (typically 5-10% solids) and diluted in storage buffer to a working concentration (0.036%) before each assay. In an alternative method, rHBcAg was coupled directly to the microparticles by the EDAC method. The anti-HBc undercoating method is preferred.
Acridinium-labeled purified anti-HBc (human) was prepared using an EDAC coupling procedure on the active ester. Briefly, 1 mg of B-alanine acridinium was dissolved in 100 ul anhydrous DMF and activated by sequential addition of 50 ul N-hydroxylsuccinimide (NHS) (5.75 mg/ml) and 50 ul EDAC (19.2 mg/ml) (molar ratio NHS:EDAC=1:2). The reaction proceeded in the dark at room temperature for 30 minutes. Protein A purified human anti-HBc was dialyzed (3×) against PBS, 0.5% CHAPS, pH 6.3, overnight at 2°-8° C. Activated acridinium was added to dialyzed antibody (30:1 molar excess) and the reaction mixture stirred for 30 minutes at room temperature. After dialysis versus the same buffer, the preparation was centrifuged and the supernatant chromatographed on a Beckman TSK 250 HPLC column equilibrated with the same buffer. Individual fractions (1 ml) were analyzed by UV spectroscopy at 369 and 280 nm to determine incorparation of acridinium (typically 3:1).
100 ul duplicates of samples including a sensitivity panel sample (1.23 Paul Erhlich Units/ml, Panel 7), two samples, S9 and S14, which were similar in anti-HBc reactivity to Group II samples described above, and negative and positive controls were added to a microtiter plate. […] 50 ul of the HBcAg-coated microparticles (0.036% solids) were added to all wells. This reaction mixture was incubated for 20 minutes in a 40° water bath.
166 ul of each reaction mixture was transferred to a microparticle capture/flow-through glass fiber filter funnel (Abbott Laboratories, North Chicago, Ill.) which was prewetted with 50 ul of 0.1% Tween-20. Each capture membrane was then washed twice with 50 ul of 0.1% Tween-20. 20 ul of the acridinium-labeled anti-HBc (375 ng/ml) was added to the surface of each capture membrane and incubated at room temperature for 20 minutes. The capture membranes were then washed twice with 100 ul and once with 50 ul of 0.1% Tween-20.
The membranes were then transferred to a chemiluminescence reader where approximately 100 ul of a trigger solution comprising 0.3% H2 O2 in 0.25N NaOH was delivered to each membrane. The amount of light generated by the acridinium-labelled reagent bound to the microparticles was determined and is inversely proportional to the amount of anti-HBc present in the sample. […] There was a 10-20% signal loss in the negative control in the presence of cysteine. […]

anti-HBc [3] = assay: Sephacryl S-300 fractions assayed for anti-HBc activity by microparticle assay, with cysteine; assay type: binding
Experimental: Briefly, 2 ml of recalcified Sample 209 was applied to a Sephacryl S-300 column (2.5×50 cm) equilibrated with PBS. 2.5 ml fractions were collected at a flow rate of 20 ml/hr. Fractions were assayed using the microparticle assay of Example 3 except that an approximately 5 fold increase in sensitivity was implemented by using increasing incubation time and decreasing the amount of anti-HBc conjugate. […] The first inhibitory peak was not detected when assayed in the presence of cysteine. The second and major inhibitory peak, which co-eluted with the IgG protein peak, was unaffected by cysteine treatment. The immunoglobulin G associated anti-HBc activity is specific for non-acute hepatitis B infection.
3 ml of a borderline positive sample (Sample 9) was tested according to the procedure of Example 9. […] In the absence of reducing agent, a single inhibitory peak was seen near the void volume of the column. This peak was not detected when assayed in the presence of cysteine, and was clearly resolved form the IgG protein peak. This non-IgG reactivity is not believed to be a result of Hepatitis B infection and is therefore nonspecific.

SMILES: O=S([O-])S(=O)(=O)[O-].[Na+].[Na+] [MBS, sodium metabisulfite]
- <cpm> (anti-HBc [1]; 10 ul 0.5M MBS, NC): 20856 cpm
- % I (percent inhibition) (anti-HBc [1]; 10 ul 0.5M MBS, NC spiked with Panel 5): 73.6%
- <cpm> (anti-HBc [1]; 10 ul 0.5M MBS, PC): 350 cpm
- % I (percent inhibition) (anti-HBc [1]; 10 ul 0.5M MBS, Panel 7): 71.0%
- <Sx*> % I (anti-HBc [1]; 10 ul 0.5M MBS, mean of samples spiked with Panel 5): 74.8%
- <Sx> % I (anti-HBc [1]; 10 ul 0.5M MBS, mean of unspiked samples): 11.4%
- % I (percent inhibition) (anti-HBc [1]; 10 ul 0.5M MBS, sample OBI 25): 7.6%
- % I (percent inhibition) (anti-HBc [1]; 10 ul 0.5M MBS, sample OBI 25 spiked with Panel 5): 74.3%
- % I (percent inhibition) (anti-HBc [1]; 10 ul 0.5M MBS, sample OBI 31): 10.4%
- % I (percent inhibition) (anti-HBc [1]; 10 ul 0.5M MBS, sample OBI 31 spiked with Panel 5): 75.6%
- % I (percent inhibition) (anti-HBc [1]; 10 ul 0.5M MBS, sample OBI 76): 5.8%
- % I (percent inhibition) (anti-HBc [1]; 10 ul 0.5M MBS, sample OBI 76 spiked with Panel 5): 74.2%
- % I (percent inhibition) (anti-HBc [1]; 10 ul 0.5M MBS, sample OBI 91): 10.8%
- % I (percent inhibition) (anti-HBc [1]; 10 ul 0.5M MBS, sample OBI 91 spiked with Panel 5): 75.0%
- % I (percent inhibition) (anti-HBc [1]; 10 ul 0.5M MBS, sample OBI 177): 31.5%
- % I (percent inhibition) (anti-HBc [1]; 10 ul 0.5M MBS, sample OBI 177 spiked with Panel 5): 74.4%
- % I (percent inhibition) (anti-HBc [1]; 10 ul 0.5M MBS, sample OBI 189): 2.5%
- % I (percent inhibition) (anti-HBc [1]; 10 ul 0.5M MBS, sample OBI 189 spiked with Panel 5): 75.1%
- effect on anti-HBc positive samples (anti-HBc [1]; Panel 7 and samples spiked with Panel 5): not affected
- absolute values for negative and positive controls (anti-HBc [1]; Table I): not affected significantly
- inhibition in the Corab assay (anti-HBc [1]; Sample 9): 5.2%
- inhibition in the Corab assay (anti-HBc [1]; Sample 209): 86.3%

SMILES: N[C@@H](CS)C(=O)O [cysteine]
- COUNTS (anti-HBc [2]; 200 mM cysteine solution (EDTA, DTT), Negative Control): 23992 COUNTS
- % I (percent inhibition) (anti-HBc [2]; 200 mM cysteine solution (EDTA, DTT), Panel 7): 76.3%
- % I (percent inhibition) (anti-HBc [2]; 200 mM cysteine solution (EDTA, DTT), Plasma S9): 3.2%
- % I (percent inhibition) (anti-HBc [2]; 200 mM cysteine solution (EDTA, DTT), Plasma S14): 3.0%
- COUNTS (anti-HBc [2]; 200 mM cysteine solution (EDTA, DTT), Positive Control): 5000 COUNTS
- <cpm> (anti-HBc [2]; 10 ul 0.75M cysteine fresh, NC): 20856 cpm
- % I (percent inhibition) (anti-HBc [2]; 10 ul 0.75M cysteine fresh, NC spiked with Panel 5): 80.8%
- <cpm> (anti-HBc [2]; 10 ul 0.75M cysteine fresh, PC): 4035 cpm
- % I (percent inhibition) (anti-HBc [2]; 10 ul 0.75M cysteine fresh, Panel 7): 80.7%
- average percent inhibition (anti-HBc [2]; 10 ul 0.75M cysteine fresh, plasma samples spiked with Panel 5): 71.5%
- % I (percent inhibition) (anti-HBc [2]; 10 ul 0.75M cysteine fresh, sample 52): 6.2%
- % I (percent inhibition) (anti-HBc [2]; 10 ul 0.75M cysteine fresh, sample 52 spiked with Panel 5): 67.9%
- % I (percent inhibition) (anti-HBc [2]; 10 ul 0.75M cysteine fresh, sample 71): 36.0%
- % I (percent inhibition) (anti-HBc [2]; 10 ul 0.75M cysteine fresh, sample 71 spiked with Panel 5): 69.9%
- % I (percent inhibition) (anti-HBc [2]; 10 ul 0.75M cysteine fresh, sample 166): 54.0%
- % I (percent inhibition) (anti-HBc [2]; 10 ul 0.75M cysteine fresh, sample 166 spiked with Panel 5): 80.8%
- % I (percent inhibition) (anti-HBc [2]; 10 ul 0.75M cysteine fresh, sample 189): 11.1%
- % I (percent inhibition) (anti-HBc [2]; 10 ul 0.75M cysteine fresh, sample 189 spiked with Panel 5): 70.5%
- % I (percent inhibition) (anti-HBc [2]; 10 ul 0.75M cysteine fresh, sample 277): -2.5%
- % I (percent inhibition) (anti-HBc [2]; 10 ul 0.75M cysteine fresh, sample 277 spiked with Panel 5): 68.6%
- average percent inhibition (anti-HBc [2]; 10 ul 0.75M cysteine fresh, unspiked plasma samples): 21.0%
- mean counts (anti-HBc [2]; Example 5, + cysteine reagent, Negative control): 24494 counts
- % I (percent inhibition) (anti-HBc [2]; Example 5, + cysteine reagent, Panel 5): 86.7%
- % I (percent inhibition) (anti-HBc [2]; Example 5, + cysteine reagent, Panel 6): 85.3%
- % I (percent inhibition) (anti-HBc [2]; Example 5, + cysteine reagent, Panel 7): 77.2%
- % I (percent inhibition) (anti-HBc [2]; Example 5, + cysteine reagent, Panel 8): 53.5%
- % I (percent inhibition) (anti-HBc [2]; Example 5, + cysteine reagent, Panel 9): 21.0%
- mean counts (anti-HBc [2]; Example 5, + cysteine reagent, Positive control): 5678 counts
- activity (interfering factor) in Group II type samples (anti-HBc [2]; S9 and S14, presence of cysteine): eliminated
- signal loss in the negative control (anti-HBc [2]; presence of cysteine): 10-20%
- single inhibitory peak near the void volume (anti-HBc [3]; Sample 9, presence of cysteine): not detected
- second and major inhibitory peak (co-eluted with IgG) (anti-HBc [3]; Sample 209, cysteine treatment): unaffected
- first inhibitory peak (anti-HBc [3]; Sample 209, presence of cysteine): not detected
